US3954793A, “1-(2-Propynyl)-1 H-indazole compounds” (priority 1973, dated 1976)

Experiments:
[1] = system: Rutgers A strain house flies; assay: topical application, percent kill after 24 hours, resistant Rutgers A strain; type: in vivo, female); settings: for percent kill after 24 hours, with GS 13005: GS 13005 1.0 + synergist 5.0 μg/fly
Summary of the method: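 Synergist plus mobam, Diazinon or GS 13005 dissolved in acetone, applied as 1.0 μl to the thorax of CO2-anaesthetised 3-to-5 day old female Rutgers A (resistant) house flies; doses in μg/fly. Flies held 10 per dish, 3-5 dishes per treatment, with skim milk; mortality scored at 24 h.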

[2] = system: male mice; assay: extension of sleeping time of depressant drugs by synergists; type: in vivo, male mice (Swiss albino white); settings: for Mean Sleeping Time, Noludar / Relative Sleeping Time, Noludar: Noludar 110 mg/kg; for Relative Sleeping Time, Noludar / Relative Sleeping Time, Secobarbital: treated/control; for Mean Sleeping Time, Secobarbital / Relative Sleeping Time, Secobarbital: Secobarbital 37 mg/kg
Summary of the method: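 Swiss albino male mice (~38 days, 25-30 g) given synergist at 74.0 or 110.0 mg/kg in corn oil 1 h before Secobarbital 37.0 mg/kg or Noludar 110.0 mg/kg in water. Sleeping time measured from drug dosing to righting-reflex recovery; relative sleeping time = treated ÷ drug-only control.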

[3] = system: Swiss albino, white male mice; assay: acute toxicity and synergism of acute toxicity in mice; type: in vivo; settings: for number of mice dead, with Dimetilan: 48 hours; for number of mice dead, with Dimetilan / number of mice dead, synergist alone: eight mice; for number of mice dead, with GS 13005: GS 13005 71 + synergist 213 mg/kg; for number of mice dead, with Methadone: Methadone 32 + synergist 215 mg/kg; for number of mice dead, with Secobarbital: Secobarbital 90 + synergist 215 mg/kg; for number of mice dead, synergist alone: synergist 1000 mg/kg i.p., Dimetilan 0, 72 hours
Summary of the method: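 Male Swiss albino mice (23 to 27 g, five to six weeks), eight per dose, dosed intraperitoneally in corn oil: dimetilan alone at 4 to 32 mg per kg, synergists alone at 1000 mg/kg with deaths counted at 72 hours. For synergism, synergist given 1 hour before insecticide, lethality observed for at least 6 hours.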

[4] = Diazinon 1.5 + synergist 7.5 μg/fly
[5] = Mobam 0.30 + synergist 1.5 μg/fly
[6] = Mobam 0.60 + synergist 3.0 μg/fly
[7] = insecticide 0, synergist 7.5 μg/fly
[8] = synergist 110 mg/kg one hour prior
[9] = synergist 74 mg/kg one hour prior
[10] = Dimetilan 8 + synergist 80 mg/kg i.p.
[11] = Dimetilan 8 + synergist 240 mg/kg i.p.
[12] = Mobam 0.40 + synergist 2.0 μg/fly
[13] = insecticide 0, synergist 5.0 μg/fly
[14] = Diazinon 1.0 + synergist 3.0 μg/fly
[15] = Diazinon 3.0 + synergist 3.0 μg/fly
[16] = Diazinon 3.0 + synergist 15 μg/fly
[17] = insecticide 0, synergist 15 μg/fly

SMILES: C#CCON=C(C)c1ccc(Cl)cc1 [I-D]
- percent kill after 24 hours, with Diazinon [1, 4]: 69%
- percent kill after 24 hours, with Mobam ([1]; Mobam 0.15 + synergist 0.75 μg/fly): 19%
- percent kill after 24 hours, with Mobam [1, 5]: 95%
- percent kill after 24 hours, with Mobam [1, 6]: 100%
- percent kill after 24 hours, synergist alone [1, 7]: 0%
- Mean Sleeping Time, Noludar [2, 8]: 58 min
- Relative Sleeping Time, Noludar ([2]; synergist 110 mg/kg): 1.5
- Mean Sleeping Time, Secobarbital [2, 9]: 62 min
- Relative Sleeping Time, Secobarbital ([2]; synergist 74 mg/kg): 1.9
- Mean Sleeping Time, Secobarbital [2, 8]: 56 min
- Relative Sleeping Time, Secobarbital ([2]; synergist 110 mg/kg): 1.7
- number of mice dead, with Dimetilan [3, 10]: 1
- number of mice dead, with Dimetilan [3, 11]: 6

SMILES: C#CCOCc1c(Cl)cccc1[N+](=O)[O-] [II-K]
- percent kill after 24 hours, with GS 13005 [1]: 100%
- percent kill after 24 hours, with Mobam [1, 12]: 97%
- percent kill after 24 hours, synergist alone [1, 13]: 0%
- Mean Sleeping Time, Noludar [2, 8]: 75 min
- Relative Sleeping Time, Noludar ([2]; synergist 110 mg/kg): 2.4
- Mean Sleeping Time, Secobarbital [2, 9]: 48 min
- Relative Sleeping Time, Secobarbital ([2]; synergist 74 mg/kg): 1.5
- Mean Sleeping Time, Secobarbital [2, 8]: 44 min
- Relative Sleeping Time, Secobarbital ([2]; synergist 110 mg/kg): 2
- number of mice dead, with Dimetilan [3, 10]: 0
- number of mice dead, with Dimetilan [3, 11]: 6
- number of mice dead, with GS 13005 [3]: 3
- number of mice dead, with Methadone [3]: 2
- number of mice dead, with Secobarbital [3]: 1
- number of mice dead, synergist alone [3]: 1

SMILES: C#CCON=C(C)c1ccc2ccccc2c1 [I-F]
- percent kill after 24 hours, with Diazinon [1, 14]: 5%
- percent kill after 24 hours, with Diazinon [1, 15]: 95%
- percent kill after 24 hours, with GS 13005 [1]: 95%
- percent kill after 24 hours, with Mobam [1, 5]: 38%
- percent kill after 24 hours, synergist alone [1, 13]: 0%
- Mean Sleeping Time, Noludar [2, 8]: 55 min
- Relative Sleeping Time, Noludar ([2]; synergist 110 mg/kg): 1.4
- Mean Sleeping Time, Secobarbital [2, 9]: 32 min
- Relative Sleeping Time, Secobarbital ([2]; synergist 74 mg/kg): 1.1
- Mean Sleeping Time, Secobarbital [2, 8]: 70 min
- Relative Sleeping Time, Secobarbital ([2]; synergist 110 mg/kg): 2.2
- number of mice dead, with Dimetilan [3, 10]: 0
- number of mice dead, with Dimetilan [3, 11]: 4

SMILES: C#CCOCc1ccc([N+](=O)[O-])cc1 [II-Q, 4-nitrobenzyl 2-propynyl ether]
- percent kill after 24 hours, with GS 13005 [1]: 100%
- percent kill after 24 hours, synergist alone [1, 13]: 0%
- Mean Sleeping Time, Noludar [2, 8]: 41 min
- Relative Sleeping Time, Noludar ([2]; synergist 110 mg/kg): 2.1
- Mean Sleeping Time, Secobarbital [2, 9]: 30 min
- Relative Sleeping Time, Secobarbital ([2]; synergist 74 mg/kg): 1.1
- Mean Sleeping Time, Secobarbital [2, 8]: 73 min
- Relative Sleeping Time, Secobarbital ([2]; synergist 110 mg/kg): 1.6
- number of mice dead, with Dimetilan [3, 11]: 1
- number of mice dead, with GS 13005 [3]: 6
- number of mice dead, synergist alone [3]: 7

SMILES: C#CCON=Cc1cccc2ccccc12 [I-I]
- percent kill after 24 hours, with Diazinon [1, 4]: 0%
- percent kill after 24 hours, with Diazinon [1, 16]: 53%
- percent kill after 24 hours, synergist alone [1, 7]: 0%
- percent kill after 24 hours, synergist alone [1, 17]: 0%
- Mean Sleeping Time, Noludar [2, 8]: 62 min
- Relative Sleeping Time, Noludar ([2]; synergist 110 mg/kg): 2.1
- Mean Sleeping Time, Secobarbital [2, 9]: 31 min
- Relative Sleeping Time, Secobarbital ([2]; synergist 74 mg/kg): 1.1
- Mean Sleeping Time, Secobarbital [2, 8]: 102 min
- Relative Sleeping Time, Secobarbital ([2]; synergist 110 mg/kg): 1.7
- number of mice dead, with Dimetilan [3, 10]: 0
- number of mice dead, with Dimetilan [3, 11]: 3

SMILES: C#CCON=Cc1ccc(Cl)cc1Cl [I-G]
- percent kill after 24 hours, with Diazinon [1, 4]: 60%
- percent kill after 24 hours, with Diazinon [1, 16]: 100%
- percent kill after 24 hours, synergist alone [1, 7]: 0%
- percent kill after 24 hours, synergist alone [1, 17]: 0%
- Mean Sleeping Time, Noludar [2, 8]: 48 min
- Relative Sleeping Time, Noludar ([2]; synergist 110 mg/kg): 1.2
- Mean Sleeping Time, Secobarbital [2, 9]: 27 min
- Relative Sleeping Time, Secobarbital ([2]; synergist 74 mg/kg): 1.0
- Mean Sleeping Time, Secobarbital [2, 8]: 55 min
- Relative Sleeping Time, Secobarbital ([2]; synergist 110 mg/kg): 1.7
- number of mice dead, with Dimetilan [3, 11]: 0

SMILES: C#CCON=Cc1cccc([N+](=O)[O-])c1 [I-B]
- percent kill after 24 hours, with Diazinon [1, 14]: 5%
- percent kill after 24 hours, with Diazinon [1, 15]: 90%
- percent kill after 24 hours, with GS 13005 [1]: 100%
- percent kill after 24 hours, with Mobam [1, 5]: 40%
- percent kill after 24 hours, synergist alone [1, 13]: 0%
- Mean Sleeping Time, Noludar [2, 8]: 70 min
- Relative Sleeping Time, Noludar ([2]; synergist 110 mg/kg): 2.4
- Mean Sleeping Time, Secobarbital [2, 9]: 54 min
- Relative Sleeping Time, Secobarbital ([2]; synergist 74 mg/kg): 1.5
- Mean Sleeping Time, Secobarbital [2, 8]: 106 min
- Relative Sleeping Time, Secobarbital ([2]; synergist 110 mg/kg): 1.7
- number of mice dead, with Dimetilan [3, 10]: 1
- number of mice dead, with Dimetilan [3, 11]: 6

SMILES: C#CCOCc1c(Cl)cccc1Cl [II-H]
- percent kill after 24 hours, with GS 13005 [1]: 100%
- percent kill after 24 hours, with Mobam [1, 12]: 100%
- percent kill after 24 hours, synergist alone [1, 13]: 7%
- Mean Sleeping Time, Noludar [2, 8]: 68 min
- Relative Sleeping Time, Noludar ([2]; synergist 110 mg/kg): 2.2
- Mean Sleeping Time, Secobarbital [2, 9]: 44 min
- Relative Sleeping Time, Secobarbital ([2]; synergist 74 mg/kg): 1.4
- Mean Sleeping Time, Secobarbital [2, 8]: 51 min
- Relative Sleeping Time, Secobarbital ([2]; synergist 110 mg/kg): 2.1
- number of mice dead, with Dimetilan [3, 10]: 0
- number of mice dead, with Dimetilan [3, 11]: 6
- number of mice dead, with GS 13005 [3]: 7
- number of mice dead, with Methadone [3]: 4
- number of mice dead, with Secobarbital [3]: 0
- number of mice dead, synergist alone [3]: 0

SMILES: C#CCOCc1cccc2ccccc12 [II-R, α-napthylmethyl 2-propynyl ether]
- percent kill after 24 hours, with GS 13005 [1]: 55%
- percent kill after 24 hours, synergist alone [1, 13]: 0%
- Mean Sleeping Time, Noludar [2, 8]: 49 min
- Relative Sleeping Time, Noludar ([2]; synergist 110 mg/kg): 1.7
- Mean Sleeping Time, Secobarbital [2, 9]: 35 min
- Relative Sleeping Time, Secobarbital ([2]; synergist 74 mg/kg): 1.2
- Mean Sleeping Time, Secobarbital [2, 8]: 96 min
- Relative Sleeping Time, Secobarbital ([2]; synergist 110 mg/kg): 1.6
- number of mice dead, with Dimetilan [3, 10]: 0
- number of mice dead, with Dimetilan [3, 11]: 2

SMILES: C#CCOCc1ccccc1[N+](=O)[O-] [II-P, 2-nitrobenzyl 2-propynyl ether]
- percent kill after 24 hours, with GS 13005 [1]: 92%
- percent kill after 24 hours, synergist alone [1, 13]: 0%
- Mean Sleeping Time, Noludar [2, 8]: 44 min
- Relative Sleeping Time, Noludar ([2]; synergist 110 mg/kg): 1.5
- Mean Sleeping Time, Secobarbital [2, 8]: 46 min
- Relative Sleeping Time, Secobarbital ([2]; synergist 110 mg/kg): 1.0
- number of mice dead, with Dimetilan [3, 11]: 0
- number of mice dead, with GS 13005 [3]: 6
- number of mice dead, with Methadone [3]: 0
- number of mice dead, with Secobarbital [3]: 0
- number of mice dead, synergist alone [3]: 2

SMILES: C#CCOCc1ccc(Cl)c(Cl)c1Cl [II-D]
- percent kill after 24 hours, with Mobam [1, 6]: 92%
- percent kill after 24 hours, synergist alone [1, 7]: 0%
- Mean Sleeping Time, Noludar [2, 8]: 46 min
- Relative Sleeping Time, Noludar ([2]; synergist 110 mg/kg): 1.0
- Mean Sleeping Time, Secobarbital [2, 8]: 60 min
- Relative Sleeping Time, Secobarbital ([2]; synergist 110 mg/kg): 1.2
- number of mice dead, with Dimetilan [3, 11]: 0
- number of mice dead, with GS 13005 [3]: 3
- number of mice dead, with Methadone [3]: 2
- number of mice dead, with Secobarbital [3]: 1
- number of mice dead, synergist alone [3]: 0

SMILES: C#CCOCc1cc(Cl)c(Cl)cc1Cl [II-F]
- Mean Sleeping Time, Noludar [2, 8]: 38 min
- Relative Sleeping Time, Noludar ([2]; synergist 110 mg/kg): 1.3
- Mean Sleeping Time, Secobarbital [2, 8]: 46 min
- Relative Sleeping Time, Secobarbital ([2]; synergist 110 mg/kg): 1.0
- number of mice dead, with Dimetilan [3, 11]: 0
